Experimental data reported in patent US6177103A, “Processes to generate submicron particles of water-insoluble compounds” (RTP Pharma, Inc., priority 1999, dated 2001).
Blank lines part the entries; values can stand above or below the compound they belong to.

Key:
[1] = Particle sizing by photon correlation spectroscopy, fenofibrate microparticles by RELGS process (Example 2); type: physicochemical; settings: Lipoid E-80 and Tween-80 in liquefied carbon dioxide at 3000 psi expanded into water, 22° C.
Description: The particle sizing was performed by photon correlation spectroscopy using Submicron Particle Sizer-Autodilute Model 370 (NICOMP Particle Sizing Systems, Santa Barbara, Calif.). This instrument provides number weighted, intensity weighted, and volume weighted particle size distributions as well as multi-modality of the particle size distribution, if present.

[2] = cited from earlier work

- mean particle size [1]: about 200 nm
Structure (SMILES): CC(C)OC(=O)C(C)(C)Oc1ccc(C(=O)c2ccc(Cl)cc2)cc1 [Fenofibrate, fenofibrate]

Structure (SMILES): CC[C@H](C)C(=O)O[C@H]1C[C@@H](C)C=C2C=C[C@H](C)[C@H](CC[C@@H]3C[C@@H](O)CC(=O)O3)[C@H]21 [lovastatin]
- particle size ([2]; micro-particles by rapid expansion from liquefied-gas solution in the supercritical region, most particle sizes reported for organic materials): 5-100 micron

Structure (SMILES): CC1=C(/C=C/C(C)=C/C=C/C(C)=C/C=C/C=C(C)/C=C/C=C(C)/C=C/C2=C(C)CCCC2(C)C)C(C)(C)CCC1 [beta-carotene]
- nanoparticle size ([2]; expansion of ethane into a viscous gelatin solution): 300 nm
